From patent US20080214576A1, “Topoisomerase Inhibitors and Prodrugs” (Threshold Pharmaceuticals, Inc., priority 2004, published 2008)
Read-outs that look alike come from different tables or passages of the source.

System: H460 cells
Test: Antiproliferation assay (multi-well Alamar Blue based)
Assay type: cell-based, human
Experimental: To determine the effect of the compounds of the invention on cell proliferation, the antiproliferative activity of these compounds was tested in a multi-well Alamar Blue based assay (at 2 h and 3 days). Cell growth in the presence and absence of the test compound was compared, as measured by a fluorescence plate reader at excitation 550 nm and emission 590 nm (see Biosource International Inc., Tech Application Notes, Use of Alamar Blue in the measurement of Cell Viability and Toxicity, Determining IC50). […] After 24 hours, these plates were divided into 3 groups—Control group, 2 h treatment group, and 3 day treatment group. A test compound was added to each plate in the treatment groups (2 h and 3 day) at various concentration (in 50 μl of medium). In the 2 h treatment group, after 2 h the cells were rinsed to remove the test compound and incubated for 3 days, followed by staining with AlamarBlue. The cells in the 3 day treatment group were incubated for 3 days, followed by staining with AlamarBlue. In the Control group, AlamarBlue was added to the plate at (i) day 0 and (ii) day 3 and measured to establish the control reading.

Row | GI50 (assay time period not stated) | GI90 (assay time period not stated) | GI90 (3 day treatment, AlamarBlue, GI90 also referred to as IC90) | GI50 (Homo sapiens, NCI-H460, 72 h, 3 day treatment, AlamarBlue, GI50 also referred to as IC50, read-out: GI50) | Compound
1 | not determinable | not determinable | – | – | COc1cc2c(cc1OC)-c1nc3cc4c(cc3n1C(CCCN(C)C)N2)OCO4 (stereo not shown) [Compound 7]
2 | – | – | 1000 nM | 600 nM | COc1cc2c(cc1OC)n(CCN(C)C)c(=O)n1c3cc4c(cc3nc21)OCO4 [Compound 14]
